Tests used:
[1] = target: Ephrin type-A receptor 4 (Homo sapiens) (UniProt P54764); test: Inhibition of human Eph-A4 using [gamma-33P]ATP assessed as residual activity at 3 uM after 30 mins by radiometric assay
in vitro = conditions: human, Caco-2
Description: Efflux ratio of apparent permeability from basolateral to apical side to apical to basolateral side in human Caco2 cells

[2] = target: Tyrosine-protein kinase CSK (Homo sapiens) (UniProt P41240); test: Inhibition of human CSK using [gamma-33P]ATP assessed as residual activity at 3 uM after 30 mins by radiometric assay
[3] = target: T1, Ephrin type-B receptor 2 (Homo sapiens) (UniProt P29323); test: Inhibition of human Eph-B2 using [gamma-33P]ATP assessed as residual activity at 3 uM after 30 mins by radiometric assay
T1 sequence (whole entry): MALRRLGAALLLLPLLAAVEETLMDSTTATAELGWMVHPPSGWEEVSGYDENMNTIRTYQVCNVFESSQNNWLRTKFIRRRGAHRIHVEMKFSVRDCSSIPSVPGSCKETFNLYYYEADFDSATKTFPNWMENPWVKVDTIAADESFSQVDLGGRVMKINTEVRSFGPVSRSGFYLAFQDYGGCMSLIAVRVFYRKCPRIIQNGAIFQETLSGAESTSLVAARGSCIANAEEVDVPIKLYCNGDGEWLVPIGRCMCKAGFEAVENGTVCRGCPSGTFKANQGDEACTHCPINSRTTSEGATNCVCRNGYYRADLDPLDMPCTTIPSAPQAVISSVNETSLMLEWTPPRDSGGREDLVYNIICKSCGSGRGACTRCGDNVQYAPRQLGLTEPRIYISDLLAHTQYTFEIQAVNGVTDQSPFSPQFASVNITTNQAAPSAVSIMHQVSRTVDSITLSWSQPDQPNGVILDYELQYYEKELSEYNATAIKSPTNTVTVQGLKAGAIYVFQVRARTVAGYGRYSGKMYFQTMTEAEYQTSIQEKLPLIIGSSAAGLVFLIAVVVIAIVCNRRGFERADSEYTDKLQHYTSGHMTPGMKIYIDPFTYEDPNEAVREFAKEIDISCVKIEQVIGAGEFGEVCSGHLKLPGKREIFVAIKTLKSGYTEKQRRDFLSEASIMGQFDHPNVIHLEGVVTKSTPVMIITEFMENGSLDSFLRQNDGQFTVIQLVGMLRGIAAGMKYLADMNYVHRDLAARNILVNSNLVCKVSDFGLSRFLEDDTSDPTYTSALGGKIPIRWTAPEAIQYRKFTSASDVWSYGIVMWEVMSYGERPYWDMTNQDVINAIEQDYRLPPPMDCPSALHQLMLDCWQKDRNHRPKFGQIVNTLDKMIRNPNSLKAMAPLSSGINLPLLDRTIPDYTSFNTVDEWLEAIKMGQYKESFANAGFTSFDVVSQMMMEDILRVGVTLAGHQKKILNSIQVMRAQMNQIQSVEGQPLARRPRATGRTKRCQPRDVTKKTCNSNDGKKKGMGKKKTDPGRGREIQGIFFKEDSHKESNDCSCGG

[4] = target: Tyrosine-protein kinase ABL1 (Homo sapiens, UniProt P00519)
Chain of Tyrosine-protein kinase ABL1 (P00519 whole entry): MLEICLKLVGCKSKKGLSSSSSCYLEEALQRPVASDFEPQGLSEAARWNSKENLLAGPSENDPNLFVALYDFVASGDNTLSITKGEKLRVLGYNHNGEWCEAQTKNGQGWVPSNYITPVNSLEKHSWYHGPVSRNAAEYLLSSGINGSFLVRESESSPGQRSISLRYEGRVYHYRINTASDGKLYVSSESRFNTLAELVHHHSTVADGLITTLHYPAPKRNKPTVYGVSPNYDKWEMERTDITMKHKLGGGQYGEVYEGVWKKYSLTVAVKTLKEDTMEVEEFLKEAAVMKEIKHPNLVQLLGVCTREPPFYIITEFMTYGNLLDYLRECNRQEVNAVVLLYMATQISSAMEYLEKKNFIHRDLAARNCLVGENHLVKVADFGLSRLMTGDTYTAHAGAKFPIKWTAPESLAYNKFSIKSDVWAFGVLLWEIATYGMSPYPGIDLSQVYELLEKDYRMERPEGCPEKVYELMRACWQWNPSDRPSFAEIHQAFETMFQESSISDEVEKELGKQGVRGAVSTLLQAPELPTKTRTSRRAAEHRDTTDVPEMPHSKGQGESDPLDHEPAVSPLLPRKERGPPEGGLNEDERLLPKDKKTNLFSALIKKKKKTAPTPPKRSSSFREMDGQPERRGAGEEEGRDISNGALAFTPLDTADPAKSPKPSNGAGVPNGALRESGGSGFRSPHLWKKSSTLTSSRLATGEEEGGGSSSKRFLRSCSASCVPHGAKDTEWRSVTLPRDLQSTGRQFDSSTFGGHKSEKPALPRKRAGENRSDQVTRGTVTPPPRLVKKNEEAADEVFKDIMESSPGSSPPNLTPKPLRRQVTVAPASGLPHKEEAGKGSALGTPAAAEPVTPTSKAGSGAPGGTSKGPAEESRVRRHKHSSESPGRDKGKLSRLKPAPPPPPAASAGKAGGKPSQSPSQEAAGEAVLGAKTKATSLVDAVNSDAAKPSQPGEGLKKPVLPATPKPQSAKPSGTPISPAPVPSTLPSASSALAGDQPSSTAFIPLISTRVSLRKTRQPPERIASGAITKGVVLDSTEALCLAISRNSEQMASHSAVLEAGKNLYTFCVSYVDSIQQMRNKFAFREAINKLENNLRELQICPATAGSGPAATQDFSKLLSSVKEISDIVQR
Description: Inhibition of Abl (unknown origin) using [gamma-33P]ATP after 30 mins by radiometric assay

Chain of Ephrin type-A receptor 4 (Homo sapiens) (P54764 whole entry): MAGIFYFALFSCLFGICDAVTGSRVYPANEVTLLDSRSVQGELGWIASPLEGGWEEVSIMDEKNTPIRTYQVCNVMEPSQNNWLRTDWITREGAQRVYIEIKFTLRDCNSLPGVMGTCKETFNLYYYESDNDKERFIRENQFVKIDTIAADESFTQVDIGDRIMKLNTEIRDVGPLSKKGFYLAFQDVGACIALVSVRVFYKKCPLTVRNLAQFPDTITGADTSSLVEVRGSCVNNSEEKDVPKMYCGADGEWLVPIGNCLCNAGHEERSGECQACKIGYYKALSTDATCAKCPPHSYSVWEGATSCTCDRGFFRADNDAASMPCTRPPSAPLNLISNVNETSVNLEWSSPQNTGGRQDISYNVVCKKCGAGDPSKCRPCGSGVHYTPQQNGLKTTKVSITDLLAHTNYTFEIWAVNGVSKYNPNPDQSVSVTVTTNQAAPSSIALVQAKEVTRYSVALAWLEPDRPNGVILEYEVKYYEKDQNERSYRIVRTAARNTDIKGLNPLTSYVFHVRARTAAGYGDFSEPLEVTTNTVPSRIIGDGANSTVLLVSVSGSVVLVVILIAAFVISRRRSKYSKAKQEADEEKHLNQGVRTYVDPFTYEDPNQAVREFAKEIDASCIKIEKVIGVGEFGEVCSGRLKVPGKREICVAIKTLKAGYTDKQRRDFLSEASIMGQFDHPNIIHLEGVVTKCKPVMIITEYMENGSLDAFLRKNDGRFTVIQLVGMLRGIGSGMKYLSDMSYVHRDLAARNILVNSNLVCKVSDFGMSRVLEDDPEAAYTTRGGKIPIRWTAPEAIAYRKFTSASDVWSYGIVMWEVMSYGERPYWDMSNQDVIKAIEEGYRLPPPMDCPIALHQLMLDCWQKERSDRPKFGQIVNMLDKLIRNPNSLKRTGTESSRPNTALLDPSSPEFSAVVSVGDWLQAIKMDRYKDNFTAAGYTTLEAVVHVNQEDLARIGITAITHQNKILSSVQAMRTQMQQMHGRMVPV
Chain of Tyrosine-protein kinase CSK (Homo sapiens) (P41240 2-450 limits assumed): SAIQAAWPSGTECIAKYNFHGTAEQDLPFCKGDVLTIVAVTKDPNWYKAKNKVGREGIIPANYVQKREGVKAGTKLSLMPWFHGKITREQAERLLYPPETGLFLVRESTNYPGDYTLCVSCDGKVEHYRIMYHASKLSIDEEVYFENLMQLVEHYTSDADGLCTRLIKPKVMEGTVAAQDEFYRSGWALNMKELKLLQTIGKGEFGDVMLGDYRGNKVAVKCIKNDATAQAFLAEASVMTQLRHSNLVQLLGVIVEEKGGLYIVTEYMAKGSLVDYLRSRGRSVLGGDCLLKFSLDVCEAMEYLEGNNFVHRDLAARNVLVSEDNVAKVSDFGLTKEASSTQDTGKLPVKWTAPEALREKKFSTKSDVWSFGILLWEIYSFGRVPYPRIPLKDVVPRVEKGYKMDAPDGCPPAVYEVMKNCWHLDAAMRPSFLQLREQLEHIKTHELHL

CCCCn1c(-c2ccccc2C)cn2c3c(=O)[nH]c(=O)n(C)c3nc12
Activity [1]: 5% | efflux ratio (in vitro): 0.7 | Activity [2]: 57% | Activity [3]: 8% | IC50 [4]: 578 nM

From ChEMBL document CHEMBL2331203, “Optimization of inhibitors of the tyrosine kinase EphB4. 2. Cellular potency improvement and binding mode validation by X-ray crystallography” (J Med Chem, 2013)
